# Measured values published in article PMC5971061, “Differential Effects of Linkers on the Activity of Amphiphilic Tobramycin Antifungals” (Molecules : A Journal of Synthetic Chemistry and Natural …, 2018).
# Where two headings read alike, the source gives them in different places.
# Experiments:
# [1] = tested on: C. albicans ATCC 64124 (strain B); experiment: MIC, broth microdilution (CLSI M27-A3), yeast strain B; assay type: cell-based; conditions: Candida albicans, ATCC64124; MIC-0, strain B, 35 °C 48 h
# Description: (§1) The final concentrations of compounds 3, 4, 7a, 7b, 9, and 16, as well as that of TOB tested in this study ranged from 0.24–62.5 μg/mL. CAS was used as a positive control and the final concentrations tested for CAS ranged from 0.03–31.3 μg/mL. Briefly, overnight yeast cultures were grown in yeast peptone dextrose (YPD) broth and the cell density was adjusted to an OD600 of 0.12 (~1 × 10^6 CFU/mL) by using a spectrophotometer. Yeast cell suspensions were further diluted to achieve 1–5 × 10^3 CFU/mL in RPMI 1640 medium, and 100 μL of these yeast cells was added to 96-well microtiter plates containing RPMI 1640 medium and titrated compounds. Each test was performed in triplicate. The plates were incubated at 35 °C for 48 h.
# [2] = tested on: Candida parapsilosis clinical isolate CP2; experiment: MIC, broth microdilution (CLSI M27-A3), CP2; assay type: cell-based; conditions: Lodderomyces parapsilosis; MIC-0, CP2, 35 °C 48 h
# Description: as §1
# [3] = tested on: Aspergillus terreus ATCC MYA-3633 (strain M); experiment: MIC, filamentous fungi (CLSI M38-A2), strain M; assay type: cell-based; conditions: MIC-0, strain M, 35 °C 72 h
# Description: (§2) The spores were harvested from sporulating cultures growing on potato dextrose agar (PDA) by filtration through sterile glass wool and enumerated by using a hemocytometer (Hausser Scientific, Horsham, PA, USA) to obtain the desired inoculum size. Two-fold serial dilutions of compounds 3, 4, 7a, 7b, 9, and 16, as well as CAS and TOB were made in sterile 96-well microtiter plates to obtain the final concentration range of 0.24–62.5 μg/mL for TOB and TOB derivatives as well as 0.03–31.3 μg/mL for CAS in the RPMI 1640 medium. The spore suspensions were added to the wells to afford a final concentration of 5 × 10^5 spores/mL. The plates were incubated at 35 °C for 72 h. […] Each test was performed in triplicate.
# [4] = tested on: C. albicans ATCC MYA-2876(S) (strain C); experiment: MIC, broth microdilution (CLSI M27-A3), yeast strain C; assay type: cell-based; conditions: Candida albicans; MIC-0, strain C, 35 °C 48 h
# Description: as §1
# BEAS-2B cell line = experiment: In vitro cytotoxicity assay (resazurin), BEAS-2B; assay type: cell-based, human; conditions: 24 h; for IC50: Homo sapiens, resazurin
# Description: Mammalian cytotoxicity assays were performed as previously described with minor modifications. The normal human bronchial epithelial cells BEAS-2B and the human lung carcinoma epithelial cells A549 were grown in DMEM containing 10% fetal bovine serum (FBS) and 1% antibiotics. The confluent cells were then trypsinized with 0.05% trypsin and 0.53 mM EDTA, and resuspended in fresh DMEM medium. The cells were transferred into 96-well microtiter plates at a density of 3000 cells/well and were grown for 24 h. The following day, the medium was replaced by a fresh culture medium containing serially diluted compounds 3, 4, 7a, 7b, and 9, as well as the parent drug TOB at final concentrations of 0.48–62.5 μg/mL or sterile ddH2O (negative control). The cells were incubated for an additional 24 h at 37 °C with 5% CO2 in a humidified incubator. To evaluate cell survival, each well was treated with 10 μL (25 μg/mL) of resazurin sodium salt (Sigma-Aldrich) for 4–6 h. Metabolically active cells can convert resazurin (blue) to the highly fluorescent dye resorufin (pink), which was detected at λ560 excitation and λ590 emission wavelengths by using a SpectraMax M5 plate reader. Triton X-100® (1% v/v) gave the complete loss of cell viability and was used as the positive control. The percentage survival rates were calculated by using the following formula: % cell survival = [(fluorescence of sample) − (fluorescence of blank)] × 100/[(fluorescence of negative control) − (fluorescence of blank)].
# [5] = tested on: C. albicans ATCC MYA-1003(R) (strain G); experiment: MIC, broth microdilution (CLSI M27-A3), yeast strain G; assay type: cell-based; conditions: Candida albicans; MIC-0, strain G, 35 °C 48 h
# Description: as §1
# [6] = tested on: C. albicans ATCC MYA-1237(R) (strain F); experiment: MIC, broth microdilution (CLSI M27-A3), yeast strain F; assay type: cell-based; conditions: Candida albicans; MIC-0, strain F, 35 °C 48 h
# Description: as §1
# [7] = tested on: Candida glabrata clinical isolate CG1; experiment: MIC, broth microdilution (CLSI M27-A3), CG1; assay type: cell-based; conditions: Nakaseomyces glabratus; MIC-0, CG1, 35 °C 48 h
# Description: as §1
# [8] = tested on: Aspergillus nidulans ATCC 38163 (strain L); experiment: MIC, filamentous fungi (CLSI M38-A2), strain L; assay type: cell-based; conditions: MIC-0, strain L, 35 °C 72 h
# Description: as §2
# [9] = tested on: C. albicans ATCC MYA-2310(S) (strain E); experiment: MIC, broth microdilution (CLSI M27-A3), yeast strain E; assay type: cell-based; conditions: Candida albicans; MIC-0, strain E, 35 °C 48 h
# Description: as §1
# [10] = tested on: Candida parapsilosis ATCC 22019 (strain J); experiment: MIC, broth microdilution (CLSI M27-A3), yeast strain J; assay type: cell-based; conditions: Lodderomyces parapsilosis, ATCC22019; MIC-0, strain J, 35 °C 48 h
# Description: as §1
# [11] = tested on: C. albicans ATCC 10231 (strain A); experiment: MIC, broth microdilution (CLSI M27-A3), yeast strain A; assay type: cell-based, Candida albicans; conditions: Candida albicans, ATCC10231; MIC-0, strain A, 35 °C 48 h
# Description: as §1
# [12] = tested on: Candida glabrata clinical isolate CG2; experiment: MIC, broth microdilution (CLSI M27-A3), CG2; assay type: cell-based; conditions: Nakaseomyces glabratus; MIC-0, CG2, 35 °C 48 h
# Description: as §1
# [13] = tested on: Candida parapsilosis clinical isolate CP3; experiment: MIC, broth microdilution (CLSI M27-A3), CP3; assay type: cell-based; conditions: MIC-0, CP3, 35 °C 48 h
# Description: as §1
# [14] = tested on: Candida krusei ATCC 6258 (strain I); experiment: MIC, broth microdilution (CLSI M27-A3), yeast strain I; assay type: cell-based; conditions: Pichia kudriavzevii, ATCC6258; MIC-0, strain I, 35 °C 48 h
# Description: as §1
# [15] = tested on: nine non-albicans Candida strains (H-J, CG1-3, CP1-3); experiment: MIC across the panel of nine non-albicans Candida strains; assay type: cell-based, Candida glabrata, Candida krusei, Candida parapsilosis
# Description: as §1
# [16] = tested on: Cryptococcus neoformans clinical isolate CN2; experiment: MIC, broth microdilution (CLSI M27-A3), CN2; assay type: cell-based; conditions: MIC-0, CN2, 35 °C 48 h
# Description: as §1
# [17] = tested on: Cryptococcus neoformans clinical isolate CN3; experiment: MIC, broth microdilution (CLSI M27-A3), CN3; assay type: cell-based; conditions: MIC-0, CN3, 35 °C 48 h
# Description: as §1
# [18] = tested on: Cryptococcus neoformans clinical isolate CN1; experiment: MIC, broth microdilution (CLSI M27-A3), CN1; assay type: cell-based; conditions: MIC-0, CN1, 35 °C 48 h
# Description: as §1
# [19] = tested on: Candida parapsilosis clinical isolate CP1; experiment: MIC, broth microdilution (CLSI M27-A3), CP1; assay type: cell-based; conditions: Lodderomyces parapsilosis; MIC-0, CP1, 35 °C 48 h
# Description: as §1
# [20] = Aspergillus nidulans, ATCC38163, 72 h, read-out: MIC
SMILES,MIC [1] [µg/mL],MIC [2] [µg/mL],MIC [3] [µg/mL],MIC [4] [µg/mL],IC50 (BEAS-2B cell line) [µg/mL],MIC [5] [µg/mL],MIC [6] [µg/mL],MIC [7] [µg/mL],"MIC [8, 20] [µg/mL]",MIC [9] [µg/mL],MIC [10] [µg/mL],MIC [11] [µg/mL],MIC [12] [µg/mL],MIC [13] [µg/mL],MIC [14] [µg/mL],MIC [15] [µg/mL],MIC [16] [µg/mL],MIC [17] [µg/mL],MIC [18] [µg/mL],MIC [19] [µg/mL],other results
"CCCCCCCCCCCCc1cn(C[C@H]2O[C@H](O[C@@H]3[C@@H](O)[C@H](O[C@H]4O[C@H](CN)[C@@H](O)C[C@H]4N)[C@@H](N)C[C@H]3N)[C@H](O)[C@@H](N)[C@@H]2O)nn1 [Compound 7b, O-3-Amino-3,6-dideoxy-6-(4-dodecyl-1H-1,2,3-triazol-1-yl)-α-D-glucopyranosyl-(1→6)-O-[2,6-diamino-2,3,6-trideoxy-α-D-ribo-hexopyranosyl-(1→4)]-2-deoxy-D-streptamine]",3.9,1.95,62.5,15.6,> 62.5,7.8,7.8,3.9,1.95 to 3.9,7.8,1.95,3.9,3.9,7.8,3.9,1.95 to 7.8,0.48,0.975,0.48,3.9,MIC [8]: 1.95 µg/mL
"CCCCCCCCCCCC(=O)NC[C@H]1O[C@H](O[C@@H]2[C@@H](O)[C@H](O[C@H]3O[C@H](CN)[C@@H](O)C[C@H]3N)[C@@H](N)C[C@H]2N)[C@H](O)[C@@H](N)[C@@H]1O [Compound 9, O-3-Amino-3,6-dideoxy-6-[(1-oxododecyl)amino]-α-D-glucopyranosyl-(1→6)-O-[2,6-diamino-2,3,6-trideoxy-α-D-ribo-hexopyranosyl-(1→4)]-2-deoxy-D-streptamine]",15.6,15.6,> 62.5,31.3,> 62.5,31.3,31.3,15.6,1.95 to 3.9,31.3,7.8,31.3,15.6,31.3,15.6,7.8 to 31.3,0.975,0.975,0.975,31.3,MIC [8]: 3.9 µg/mL
"NC[C@H]1O[C@H](O[C@H]2[C@H](O)[C@@H](O[C@H]3O[C@H](CO)[C@@H](O)[C@H](N)[C@H]3O)[C@H](N)C[C@@H]2N)[C@H](N)C[C@@H]1O [TOB, tobramycin]",> 62.5,> 62.5,> 62.5,> 62.5,–,> 62.5,> 62.5,> 62.5,> 62.5,> 62.5,> 62.5,> 62.5,> 62.5,> 62.5,> 62.5,> 62.5,> 62.5,> 62.5,> 62.5,> 62.5,toxicity (in words) (BEAS-2B cell line; 0.48-62.5 μg/mL): little to no toxicity
